This note sets out measurements from ChEMBL document CHEMBL4715814, “Design, synthesis and biological activity evaluation of novel 4-subtituted 2-naphthamide derivatives as AcrB inhibitors” (2018).

As usually defined, the MIC is the lowest concentration found to suppress growth.

In assay [1] the test system is Cell membrane. Description: Disruption of inner membrane potential in wild type Escherichia coli BW25113 at 512 ug/ml preincubated for 10 mins followed by glucose stimulation and CCCP addition by DiOC2 probe based fluorimetric analysis. The format is subcellular. Particulars: dose 512.0 µg/ml.
Assay [2] concerns Escherichia coli. Kind of assay: Potentiation of chloramphenicol-induced antibacterial activity against wild type Escherichia coli BW25113 assessed as chloramphenicol MIC at 128 ug/ml incubated for 18 hrs under aerobic condition by checkerboard titration assay (reference value: 16 ug/ml). Particulars: dose 128 µg/ml. In kind it is functional.
For assay [3], the system named is Escherichia coli. Kind of assay: Potentiation of chloramphenicol-induced antibacterial activity against wild type Escherichia coli BW25113 assessed as chloramphenicol MIC at 256 ug/ml incubated for 18 hrs under aerobic condition by checkerboard titration assay (reference value: 16 ug/ml). Particulars: dose 256 µg/ml. In kind it is functional.
In assay [4] the test system is Escherichia coli. Description: Potentiation of erythromycin-induced antibacterial activity against wild type Escherichia coli BW25113 assessed as erythromycin MIC at 256 ug/ml incubated for 18 hrs under aerobic condition by checkerboard titration assay (reference value: 128 ug/ml). Particulars: dose 256 µg/ml. In kind it is functional.
The subject of assay [5] is Escherichia coli. Kind of assay: Potentiation of TPP-induced antibacterial activity against wild type Escherichia coli BW25113 assessed as TPP MIC at 256 ug/ml incubated for 18 hrs under aerobic condition by checkerboard titration assay (reference value: 1024 ug/ml). The format is functional. Particulars: dose 256 µg/ml.
Assay [6] concerns Escherichia coli. Description: Potentiation of rifampicin-induced antibacterial activity against wild type Escherichia coli BW25113 assessed as rifampicin MIC at 128 ug/ml incubated for 18 hrs under aerobic condition by checkerboard titration assay (reference value: 16 ug/ml). In kind it is functional. Particulars: dose 128 µg/ml.
Assay [7] deals with Escherichia coli. Kind of assay: Potentiation of chloramphenicol-induced antibacterial activity against AcrB deficient Escherichia coli BW25113 assessed as chloramphenicol MIC at 256 ug/ml incubated for 18 hrs under aerobic condition by checkerboard titration assay (reference value: 2 ug/ml). The format is functional. Particulars: dose 256 µg/ml.
The subject of assay [8] is Escherichia coli. Description: Potentiation of rifampicin-induced antibacterial activity against wild type Escherichia coli BW25113 assessed as rifampicin MIC at 256 ug/ml incubated for 18 hrs under aerobic condition by checkerboard titration assay (reference value: 16 ug/ml). The format is functional. Particulars: dose 256 µg/ml.
Assay [9] has as its system Escherichia coli. Kind of assay: Potentiation of TPP-induced antibacterial activity against wild type Escherichia coli BW25113 assessed as TPP MIC at 128 ug/ml incubated for 18 hrs under aerobic condition by checkerboard titration assay (reference value: 1024 ug/ml). In kind it is functional. Particulars: dose 128 µg/ml.
For assay [10], the system named is Escherichia coli. Kind of assay: Potentiation of erythromycin-induced antibacterial activity against wild type Escherichia coli BW25113 assessed as erythromycin MIC at 128 ug/ml incubated for 18 hrs under aerobic condition by checkerboard titration assay (reference value: 128 ug/ml). The format is functional. Particulars: dose 128 µg/ml.
The subject of assay [11] is Cell membrane. Kind of assay: Induction of outer membrane permeabilization in wild type Escherichia coli BW25113 assessed as increase in nitrocefin hydrolysis at 512 ug/ml measured for 30 mins in presence of CCCP by spectrophotometry analysis. In kind it is subcellular. Particulars: dose 512.0 µg/ml.
In assay [12] the test system is Escherichia coli. Description: Potentiation of erythromycin-induced antibacterial activity against AcrB deficient Escherichia coli BW25113 assessed as erythromycin MIC at 256 ug/ml incubated for 18 hrs under aerobic condition by checkerboard titration assay (reference value: 32 ug/ml). The format is functional. Particulars: dose 256 µg/ml.
Assay [13] concerns Escherichia coli. Kind of assay: Potentiation of TPP-induced antibacterial activity against AcrB deficient Escherichia coli BW25113 assessed as TPP MIC at 256 ug/ml incubated for 18 hrs under aerobic condition by checkerboard titration assay (reference value: 256 ug/ml). Particulars: dose 256 µg/ml. The format is functional.
In assay [14] the test system is Escherichia coli. Description: Antibacterial activity against Wild type Escherichia coli BW25113 assessed as inhibition of AcrB efflux pump by mesuring the glucose-induced nile red efflux at 500 uM preincubated with CCCP for 15 mins followed by compound addition after 15 mins nile red added and incubated for 3 hrs in shaker by fluorimetric analysis. In kind it is functional, organism-based. Particulars: time 195.0 min.

The test system of assay [15] is Escherichia coli. Kind of assay: Potentiation of chloramphenicol-induced antibacterial activity against wild type Escherichia coli BW25113 assessed as fold reduction in chloramphenicol MIC at 256 ug/ml incubated for 18 hrs under aerobic condition by checkerboard titration assay relative to chloramphenicol MIC alone. Particulars: dose 256 µg/ml. In kind it is functional.

Assay [16] concerns Escherichia coli. Description: Antibacterial activity against Wild type Escherichia coli BW25113 assessed as inhibition of AcrB efflux pump by mesuring the glucose-induced nile red efflux at 200 uM preincubated with CCCP for 15 mins followed by compound addition after 15 mins nile red added and incubated for 3 hrs in shaker by fluorimetric analysis. In kind it is functional, organism-based. Particulars: time 195.0 min.

The subject of assay [17] is Escherichia coli. Kind of assay: Potentiation of TPP-induced antibacterial activity against AcrB deficient Escherichia coli BW25113 assessed as TPP MIC at 128 ug/ml incubated for 18 hrs under aerobic condition by checkerboard titration assay (reference value: 256 ug/ml). In kind it is functional. Particulars: dose 128 µg/ml.
Assay [18] has as its system Escherichia coli. Kind of assay: Potentiation of chloramphenicol-induced antibacterial activity against AcrB deficient Escherichia coli BW25113 assessed as chloramphenicol MIC at 128 ug/ml incubated for 18 hrs under aerobic condition by checkerboard titration assay (reference value: 2 ug/ml). In kind it is functional. Particulars: dose 128 µg/ml.
In assay [19] the test system is Escherichia coli. Kind of assay: Potentiation of erythromycin-induced antibacterial activity against AcrB deficient Escherichia coli BW25113 assessed as erythromycin MIC at 128 ug/ml incubated for 18 hrs under aerobic condition by checkerboard titration assay (reference value: 32 ug/ml). In kind it is functional. Particulars: dose 128 µg/ml.

Each structure is given as a SMILES string. Calls of active or inactive are those of the source. No cut-off for these calls is given here.

Turning to `CCCNC(=O)c1cc(OCc2ccccc2)c2ccccc2c1`, the outcome with Cell membrane [1] was Active. The minimal inhibitory concentration (MIC) turned out to be 16 µg/mL in the assay with Escherichia coli [2]; 4 µg/mL in the assay with Escherichia coli [3]; 128 µg/mL with Escherichia coli [4]; 1020 µg/mL in the assay with Escherichia coli [5]; 16 µg/mL with Escherichia coli [6]; 2 µg/mL in the assay with Escherichia coli [7]. In addition, the figures for the minimal inhibitory concentration (MIC) in the assay with Escherichia coli [8], in the assay with Escherichia coli [9] and in the assay with Escherichia coli [10] were 8 µg/mL, 1020 µg/mL and 128 µg/mL, respectively. Besides, the outcome in the assay on Cell membrane [11] was inactive.

Turning to `CC(C)CCOc1cc(C(=O)NCc2ccco2)cc2ccccc12`, the result in the assay on Cell membrane [1] and in the assay with Escherichia coli [14] was Active. The minimal inhibitory concentration (MIC) in the assay on Escherichia coli [2] was found to be 8 µg/mL; with Escherichia coli [12], 32 µg/mL; with Escherichia coli [3], 4 µg/mL; in the assay with Escherichia coli [13], 256 µg/mL; in the assay with Escherichia coli [4], 32 µg/mL; with Escherichia coli [5], 1020 µg/mL. Further, the minimal inhibitory concentration (MIC) in the assay on Escherichia coli [6] came to 16 µg/mL; in the assay on Escherichia coli [7], 2 µg/mL; with Escherichia coli [8], 16 µg/mL; in the assay on Escherichia coli [9], 1020 µg/mL; with Escherichia coli [10], 64 µg/mL. Besides, in the assay with Cell membrane [11], the outcome was inactive.

For `NC(=O)c1cc(OCCN2CCN(c3ccccc3)CC2)c2ccccc2c1`, the result in the assay with Cell membrane [1] and with Cell membrane [11] was inactive. The MIC with Escherichia coli [2] was determined as 8 µg/mL; in the assay on Escherichia coli [12] it was 32 µg/mL; in the assay on Escherichia coli [3] it was 2 µg/mL; in the assay on Escherichia coli [13], 256 µg/mL; in the assay on Escherichia coli [4] it was 128 µg/mL; in the assay with Escherichia coli [5] it was 512 µg/mL. Further, the minimum inhibitory concentration (MIC) was determined as 16 µg/mL in the assay with Escherichia coli [6]; 2 µg/mL in the assay with Escherichia coli [7]; 16 µg/mL with Escherichia coli [8]; 1020 µg/mL in the assay on Escherichia coli [9]; 128 µg/mL in the assay with Escherichia coli [10]. In the assay on Escherichia coli [15], the “fold change (FC)” value is on record as 8. The result with Escherichia coli [16] was Active.

Take `COc1ccc(CNC(=O)c2cc(OCCC(C)C)c3ccccc3c2)cc1`: the MIC in the assay on Escherichia coli [2] is 16 µg/mL; with Escherichia coli [12] it was 32 µg/mL; in the assay on Escherichia coli [3], 16 µg/mL; in the assay with Escherichia coli [13], 256 µg/mL; in the assay with Escherichia coli [4] it was 32 µg/mL; in the assay on Escherichia coli [5], 1020 µg/mL. Besides, the MIC is 16 µg/mL with Escherichia coli [6]; 2 µg/mL with Escherichia coli [7]; 16 µg/mL in the assay with Escherichia coli [8]; 1020 µg/mL in the assay with Escherichia coli [9]; 64 µg/mL with Escherichia coli [10]. The result with Escherichia coli [14] was inactive.

Consider `C#CCNC(=O)c1cc(OCCC(C)C)c2ccccc2c1`, for which the result in the assay with Cell membrane [1] was Active. Also, the minimal inhibitory concentration (MIC) in the assay on Escherichia coli [2] is 8 µg/mL; in the assay on Escherichia coli [12], 32 µg/mL; in the assay on Escherichia coli [3], 2 µg/mL; in the assay on Escherichia coli [13] it was 256 µg/mL; in the assay on Escherichia coli [4], 128 µg/mL; in the assay on Escherichia coli [5], 256 µg/mL. For the same compound, the minimum inhibitory concentration (MIC) stood at 16 µg/mL in the assay with Escherichia coli [6]; 256 µg/mL with Escherichia coli [17]; 2 µg/mL with Escherichia coli [7]; 16 µg/mL with Escherichia coli [8]; 1020 µg/mL in the assay with Escherichia coli [9]; 128 µg/mL in the assay on Escherichia coli [10]. Further, the minimal inhibitory concentration (MIC) with Escherichia coli [18] is 2 µg/mL; with Escherichia coli [19] it was 32 µg/mL. For the same compound, the “fold change (FC)” value in the assay with Escherichia coli [15] was 8. The result in the assay with Escherichia coli [14] was inactive.

As for `NC(=O)c1cc(OCCSc2nc3ccccc3[nH]2)c2ccccc2c1`, the result in the assay on Cell membrane [1] and in the assay with Cell membrane [11] was inactive. In addition, the MIC was determined as 16 µg/mL with Escherichia coli [2]; 32 µg/mL in the assay with Escherichia coli [12]; 16 µg/mL with Escherichia coli [3]; 256 µg/mL with Escherichia coli [13]; 128 µg/mL in the assay with Escherichia coli [4]; 256 µg/mL in the assay with Escherichia coli [5]. Further, the minimal inhibitory concentration (MIC) in the assay on Escherichia coli [6] turned out to be 16 µg/mL; in the assay with Escherichia coli [7], 2 µg/mL; in the assay on Escherichia coli [8], 16 µg/mL; with Escherichia coli [9] it was 1020 µg/mL; in the assay with Escherichia coli [10] it was 128 µg/mL. Also, in the assay on Escherichia coli [14], the outcome was Active.
